In patent US20230146455A1, “TREATMENT OF INFLAMMATORY DISEASES WITH PEPTIDES AND PHARMACEUTICAL COMPOSITIONS” (Yuyu Pharma, Inc., priority 2020, published 2023):
Several values for one entry are separate records, joined by “and”; a condition that tells them apart may be missing. Equal entries are not always repeated. Where a SMILES comes first, the peptide text is derived from it. [ ]: non-standard residue; d: D form. Hyp = O=C(O)[C@@H]1C[C@@H](O)CN1

Tested on: GM-CSF
Experiment: Example 9 Luminex, LPS hPBMCs: GM-CSF
Assay type: cell-based, human
Protocol: Treatment Human PBMCs were pretreated with YY-101, YDE-011 and YDE-043 or reference compound; Xiidra® at various concentration (ranging from 1 nM to 100 uM) for 2 h before stimulation. An equal volume of 0.5% DMSO was used as a vehicle control. Then, the cells were treated with LPS at 5 ug/ml. The supernatants from treated cells were harvested at 24 h and placed in a 96 well for Luminex cytokine & chemokine profiling using a Luminex 200 multiplex assay (Luminex; R&D system, USA).
The main study arm with triplicate wells per group in a 24-well plate: • 1. Blank • 2. PBMC: 0.5% DMSO • 3. PBMC+LPS (5 ug/ml) • 4. PBMC+YY-101 100 uM • 5. PBMC+YY-101 10 uM • 6. PBMC+YY-101 1 uM • 7. PBMC+YY-101 0.1 uM • 8. PBMC+YY-101 0.01 uM • 9. PBMC+LPS (5 ug/ml)+Xiidra®100 uM • 10. PBMC+LPS (5 ug/ml)+Xiidra® 10 uM • 11. PBMC+LPS (5 ug/ml)+Xiidra® 1 uM • 12. PBMC+LPS (5 ug/ml)+Xiidra®0.1 uM • 13. PBMC+LPS (5 ug/ml)+Xiidra®0.01 uM • 14. PBMC+LPS (5 ug/ml)+Xiidra®0.001 uM • 15. PBMC+LPS (5 ug/ml)+YY-101 100 uM • 16. PBMC+LPS (5 ug/ml)+YY-101 10 uM • 17. PBMC+LPS (5 ug/ml)+YY-101 1 uM • 18. PBMC+LPS (5 ug/ml)+YY-101 0.1 uM • 19. PBMC+LPS (5 ug/ml)+YY-101 0.01 uM • 20. PBMC+LPS (5 ug/ml)+YY-101 0.001 uM • 21. PBMC+LPS (5 ug/ml)+YDE-011 100 uM • 22. PBMC+LPS (5 ug/ml)+YDE-011 10 uM • 23. PBMC+LPS (5 ug/ml)+YDE-011 1 uM • 24. PBMC+LPS (5 ug/ml)+YDE-011 0.1 uM • 25. PBMC+LPS (5 ug/ml)+YDE-011 0.01 uM • 26. PBMC+LPS (5 ug/ml)+YDE-011 0.001 uM • 27. PBMC+LPS (5 ug/ml)+YDE-043 100 uM • 28. PBMC+LPS (5 ug/ml)+YDE-043 10 uM • 29. PBMC+LPS (5 ug/ml)+YDE-043 1 uM • 30. PBMC+LPS (5 ug/ml)+YDE-043 0.1 uM • 31. PBMC+LPS (5 ug/ml)+YDE-043 0.01 uM • 32. PBMC+LPS (5 ug/ml)+YDE-043 0.001 uM
Multiplex assay was used to measure 30 cytokines and chemokines. The 1:2, 1:10 and 1:200 diluted cell supernatant and serial dilution of the standard were dispensed into a 96 well plate at 50 ul/well. Then, the pre-mixed cocktail of antibody-coated magnetic beads was dispensed at 50 ul/well and incubated at room temperature for 2 h in a horizontal orbital microplate shaker at 800±500 rpm. The beads were washed using a magnetic device to prevent loss. The biotin-antibody was dispensed in 50 ul of each well and incubated at room temperature for 1 h in a shaker at 800±500 rpm. After washing, streptavidin-PE was added at 50 ul/well and incubated at room temperature for 30 min in a shaker under the same conditions. Finally, after washing, wash buffer (100 ul/well) was added to the plate and incubated in a shaker for 2 min. The Luminex™ 200 setting were set according to the manufacturer's protocol. The data was calculated with a standard five-parameter logistic nonlinear regression analysis of the data (xPonent software 4.2, USA). The levels of cytokine/chemokine are normalized to the live cell counts (1×10^5 cells/mL) and presented as concentrations per mL (pg/mL or ng/mL).

[1] = PBMC + LPS(5 ug/ml) + test article 0.001 uM, Mean
[2] = PBMC + LPS(5 ug/ml) + test article 0.001 uM, single replicates
[3] = PBMC + LPS(5 ug/ml) + test article 0.01 uM, Mean
[4] = PBMC + LPS(5 ug/ml) + test article 0.01 uM, single replicates
[5] = PBMC + LPS(5 ug/ml) + test article 0.1 uM, Mean
[6] = PBMC + LPS(5 ug/ml) + test article 0.1 uM, single replicates
[7] = PBMC + LPS(5 ug/ml) + test article 1 uM, Mean
[8] = PBMC + LPS(5 ug/ml) + test article 1 uM, single replicates
[9] = PBMC + LPS(5 ug/ml) + test article 10 uM, Mean
[10] = PBMC + LPS(5 ug/ml) + test article 10 uM, single replicates
[11] = PBMC + LPS(5 ug/ml) + test article 100 uM, Mean
[12] = PBMC + LPS(5 ug/ml) + test article 100 uM, single replicates
[13] = PBMC + test article 0.01 uM, no LPS, Mean
[14] = PBMC + test article 0.01 uM, no LPS, single replicates
[15] = PBMC + test article 0.1 uM, no LPS, Mean
[16] = PBMC + test article 0.1 uM, no LPS, single replicates
[17] = PBMC + test article 1 uM, no LPS, Mean
[18] = PBMC + test article 1 uM, no LPS, single replicates
[19] = PBMC + test article 10 uM, no LPS, Mean
[20] = PBMC + test article 10 uM, no LPS, single replicates
[21] = PBMC + test article 100 uM, no LPS, Mean
[22] = PBMC + test article 100 uM, no LPS, single replicates

SMILES: CC(C)C[C@H](NC(=O)CNC(=O)[C@H](CC(=O)O)NC(=O)[C@H](CCC(N)=O)NC(=O)CNC(=O)[C@@H]1C[C@@H](O)CN1)C(=O)N[C@@H](C)C(=O)NCC(=O)N1CCC[C@H]1C(=O)N[C@@H](CCCCN)C(=O)O [YY-101] (H-[Hyp]GQDGLAGPK-OH; N-terminus and C-terminus assumed)
- GM-CSF Concentration [1]: 159.8 pg/mL
- GM-CSF conc/live cell [1]: 24.7 pg/10^5
- GM-CSF Concentration [2]: 138.9 pg/mL and 160.4 pg/mL and 180.1 pg/mL
- GM-CSF conc/live cell [2]: 24.4 pg/10^5 and 22.6 pg/10^5 and 27.3 pg/10^5
- GM-CSF Concentration [3]: 159.0 pg/mL
- GM-CSF conc/live cell [3]: 25.8 pg/10^5
- GM-CSF Concentration [4]: 164.4 pg/mL and 159.6 pg/mL and 153.1 pg/mL
- GM-CSF conc/live cell [4]: 25.7 pg/10^5 and 26.6 pg/10^5 and 25.1 pg/10^5
- GM-CSF Concentration [5]: 139.7 pg/mL
- GM-CSF conc/live cell [5]: 23.9 pg/10^5
- GM-CSF Concentration [6]: 150.7 pg/mL and 135.6 pg/mL and 132.7 pg/mL
- GM-CSF conc/live cell [6]: 24.3 pg/10^5 and 26.1 pg/10^5 and 21.4 pg/10^5
- GM-CSF Concentration [7]: 141.2 pg/mL
- GM-CSF conc/live cell [7]: 21.7 pg/10^5
- GM-CSF Concentration [8]: 137.2 pg/mL and 133.1 pg/mL and 153.1 pg/mL
- GM-CSF conc/live cell [8]: 21.8 pg/10^5 and 18.8 pg/10^5 and 24.7 pg/10^5
- GM-CSF Concentration [9]: 148.1 pg/mL
- GM-CSF conc/live cell [9]: 22.5 pg/10^5
- GM-CSF Concentration [10]: 153.1 pg/mL and 143.8 pg/mL and 147.4 pg/mL
- GM-CSF conc/live cell [10]: 25.5 pg/10^5 and 22.5 pg/10^5 and 19.4 pg/10^5
- GM-CSF Concentration [11]: 224.0 pg/mL
- GM-CSF conc/live cell [11]: 38.7 pg/10^5
- GM-CSF Concentration [12]: 239.6 pg/ml and 216.3 pg/ml (2×)
- GM-CSF conc/live cell [12]: 38.0 pg/10^5 and 34.9 pg/10^5 and 43.3 pg/10^5
- GM-CSF Concentration [13]: 5.8 pg/mL
- GM-CSF conc/live cell [13]: 1.2 pg/10^5
- GM-CSF Concentration [14]: 5.3 pg/mL and 6.3 pg/mL
- GM-CSF conc/live cell [14]: 1.0 pg/10^5 and 1.3 pg/10^5
- GM-CSF Concentration [15]: 4.4 pg/mL
- GM-CSF conc/live cell [15]: 0.8 pg/10^5
- GM-CSF Concentration [16]: 1.9 pg/mL and 6.9 pg/mL
- GM-CSF conc/live cell [16]: 0.4 pg/10^5 and 1.2 pg/10^5
- GM-CSF Concentration [17]: 4.4 pg/mL
- GM-CSF conc/live cell [17]: 0.8 pg/10^5
- GM-CSF Concentration [18]: 4.7 pg/mL and 4.2 pg/mL
- GM-CSF conc/live cell [18]: 0.9 pg/10^5 and 0.8 pg/10^5
- GM-CSF Concentration [19]: 23.5 pg/mL
- GM-CSF conc/live cell [19]: 3.7 pg/10^5
- GM-CSF Concentration [20]: 33.5 pg/mL and 13.5 pg/mL
- GM-CSF conc/live cell [20]: 5.2 pg/10^5 and 2.2 pg/10^5
- GM-CSF Concentration [21]: 11.0 pg/mL
- GM-CSF conc/live cell [21]: 1.7 pg/10^5
- GM-CSF Concentration [22]: 14.5 pg/mL and 7.4 pg/mL
- GM-CSF conc/live cell [22]: 2.3 pg/10^5 and 1.1 pg/10^5
- LPS-induced GM-CSF levels (in words) (at 100.iM, LPS 5 ug/mL 24 hrs): further increased
